In patent publication US20240398784A1, “C-LINKED ISOQUINOLINE AMIDES AS LRRK2 INHIBITORS, PHARMACEUTICAL COMPOSITIONS, AND USES THEREOF” (Merck Sharp & Dohme LLC, priority 2021, published 2024):

target: LRRK2 G2019S (Homo sapiens, UniProt Q5S007, G2019S); assay: LRRK2 G2019S Km ATP LanthaScreen assay; assay type: biochemical; conditions: not given
Sequence (Q5S007 whole entry G2019S): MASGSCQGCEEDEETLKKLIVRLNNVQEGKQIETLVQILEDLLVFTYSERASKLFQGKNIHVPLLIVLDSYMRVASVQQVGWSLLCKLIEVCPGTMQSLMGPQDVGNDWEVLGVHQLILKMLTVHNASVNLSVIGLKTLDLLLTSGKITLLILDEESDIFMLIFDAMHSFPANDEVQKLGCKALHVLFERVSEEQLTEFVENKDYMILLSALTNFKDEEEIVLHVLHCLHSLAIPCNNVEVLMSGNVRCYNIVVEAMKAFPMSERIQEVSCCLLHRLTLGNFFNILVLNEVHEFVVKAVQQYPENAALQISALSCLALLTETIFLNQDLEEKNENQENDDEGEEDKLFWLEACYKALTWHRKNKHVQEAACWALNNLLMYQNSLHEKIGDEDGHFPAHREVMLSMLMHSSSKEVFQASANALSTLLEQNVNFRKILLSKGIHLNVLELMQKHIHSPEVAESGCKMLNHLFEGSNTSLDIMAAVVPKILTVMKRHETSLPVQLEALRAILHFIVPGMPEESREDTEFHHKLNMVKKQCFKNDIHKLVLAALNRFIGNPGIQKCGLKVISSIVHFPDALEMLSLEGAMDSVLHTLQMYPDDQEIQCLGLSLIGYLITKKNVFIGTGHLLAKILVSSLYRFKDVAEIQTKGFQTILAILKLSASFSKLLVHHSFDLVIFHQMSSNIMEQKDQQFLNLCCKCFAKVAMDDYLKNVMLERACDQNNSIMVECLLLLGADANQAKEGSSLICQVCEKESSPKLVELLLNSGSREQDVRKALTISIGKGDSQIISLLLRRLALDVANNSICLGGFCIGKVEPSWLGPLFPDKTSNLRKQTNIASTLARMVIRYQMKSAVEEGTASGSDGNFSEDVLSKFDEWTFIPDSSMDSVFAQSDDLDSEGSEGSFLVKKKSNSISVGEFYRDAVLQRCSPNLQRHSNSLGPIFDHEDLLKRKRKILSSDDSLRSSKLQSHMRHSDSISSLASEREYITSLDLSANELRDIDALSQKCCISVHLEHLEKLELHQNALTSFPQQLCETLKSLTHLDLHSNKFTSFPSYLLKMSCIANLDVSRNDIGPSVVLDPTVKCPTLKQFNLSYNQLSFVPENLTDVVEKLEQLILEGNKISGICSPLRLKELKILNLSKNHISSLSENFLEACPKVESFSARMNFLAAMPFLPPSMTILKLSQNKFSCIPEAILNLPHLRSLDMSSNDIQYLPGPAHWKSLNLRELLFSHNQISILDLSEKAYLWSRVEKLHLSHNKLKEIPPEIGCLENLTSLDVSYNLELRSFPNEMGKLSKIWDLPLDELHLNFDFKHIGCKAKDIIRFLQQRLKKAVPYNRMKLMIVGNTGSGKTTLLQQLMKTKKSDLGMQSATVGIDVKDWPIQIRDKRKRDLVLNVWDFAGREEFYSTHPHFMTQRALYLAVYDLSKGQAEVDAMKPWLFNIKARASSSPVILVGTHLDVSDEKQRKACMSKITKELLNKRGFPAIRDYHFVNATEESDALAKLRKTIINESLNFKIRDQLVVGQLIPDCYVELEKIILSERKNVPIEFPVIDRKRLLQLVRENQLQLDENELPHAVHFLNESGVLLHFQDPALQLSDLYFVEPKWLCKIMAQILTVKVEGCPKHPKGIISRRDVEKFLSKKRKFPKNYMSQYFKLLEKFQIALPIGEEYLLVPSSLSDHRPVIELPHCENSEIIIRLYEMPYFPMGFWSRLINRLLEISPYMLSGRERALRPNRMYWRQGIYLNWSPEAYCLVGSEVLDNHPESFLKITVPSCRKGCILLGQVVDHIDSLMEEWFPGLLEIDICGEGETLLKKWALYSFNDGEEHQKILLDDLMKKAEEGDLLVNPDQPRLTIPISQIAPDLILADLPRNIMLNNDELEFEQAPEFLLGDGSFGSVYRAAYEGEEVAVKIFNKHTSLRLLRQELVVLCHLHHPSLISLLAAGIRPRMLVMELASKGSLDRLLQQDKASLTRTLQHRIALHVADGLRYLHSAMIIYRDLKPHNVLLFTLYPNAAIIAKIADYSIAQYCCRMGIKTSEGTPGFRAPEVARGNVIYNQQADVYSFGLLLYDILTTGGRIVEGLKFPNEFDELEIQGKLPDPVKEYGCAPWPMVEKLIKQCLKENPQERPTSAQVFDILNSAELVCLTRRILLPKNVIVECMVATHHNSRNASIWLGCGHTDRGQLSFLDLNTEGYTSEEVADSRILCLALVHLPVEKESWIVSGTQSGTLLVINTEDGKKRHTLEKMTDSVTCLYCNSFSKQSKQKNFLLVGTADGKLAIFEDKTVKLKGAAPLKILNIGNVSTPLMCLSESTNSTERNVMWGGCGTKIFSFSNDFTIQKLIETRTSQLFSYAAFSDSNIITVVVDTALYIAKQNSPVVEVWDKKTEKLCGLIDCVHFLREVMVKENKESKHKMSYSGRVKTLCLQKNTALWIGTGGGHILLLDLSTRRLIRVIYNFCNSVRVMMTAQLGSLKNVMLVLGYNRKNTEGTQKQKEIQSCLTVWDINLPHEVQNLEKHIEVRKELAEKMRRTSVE

| Compound | LRRK2 pIC50 |
| --- | --- |
| CC1(N2CCC(c3cc4cc(NC(=O)Cc5ccncc5)ncc4cc3Cl)CC2)COCC1O (stereo not shown) [Ex-3.8] | 10.09 |

same assay, conditions: read-out: LRRK2 pIC50 (converted)

| IC50 [nM] | Compound |
| --- | --- |
| 0.174 | CC(C)(O)C1CC(C(=O)Nc2cc3cc(C4CCN(C5(C)COCC5O)CC4)c(Cl)cc3cn2)C1 (stereo not shown) [Ex-2.13] |
| 11.5 | CC(C)(O)C1CC1C(=O)Nc1cc2cc(C3CCN(C4(C)COCC4O)CC3)c(Cl)cc2cn1 (stereo not shown) [Ex-2.20] |
| 0.977 | CC1(N2CCC(c3cc4cc(NC(=O)Cn5cc(Cl)cn5)ncc4cc3Cl)CC2)COCC1O (stereo not shown) [Ex-3.9] |
| 15.5 | CC1(N2CCC(c3cc4cc(NC(=O)C5CC5C(F)F)ncc4cc3Cl)CC2)COCC1O (single isomer, unassigned) [Ex-10.10, N-(7-chloro-6-(1-(4-hydroxy-3-methyltetrahydrofuran-3-yl)piperidin-4-yl)isoquinolin-3-yl)-2-(difluoromethyl)cyclopropane-1-carboxamide] |
| 15.1 | CC1C(C(=O)Nc2cc3cc(C4CCN(C5(C)COCC5O)CC4)c(Cl)cc3cn2)C1c1ccccn1 (single isomer, unassigned) [Ex-4.52, N-(7-chloro-6-(1-(4-hydroxy-3-methyltetrahydrofuran-3-yl)piperidin-4-yl)isoquinolin-3-yl)-2-methyl-3-(pyridin-2-yl)cyclopropane-1-carboxamide] |
| 2.34 | CC1(N2CCC(c3cc4cc(NC(=O)C5CCC6(CCC6)OC5)ncc4cc3Cl)CC2)COCC1O (single isomer, unassigned) [Ex-4.23, N-(7-chloro-6-(1-(4-hydroxy-3-methyltetrahydrofuran-3-yl)piperidin-4-yl)isoquinolin-3-yl)-5-oxaspiro[3.5]nonane-7-carboxamide] |
| 0.0813 | CC1(N2CCC(c3cc4cc(NC(=O)Cc5cccnc5)ncc4cc3Cl)CC2)COCC1O (stereo not shown) [Ex-3.7] |
| 72.4 | CC(C)Cn1nccc1C1CC1C(=O)Nc1cc2cc(C3CCN(C4(C)COCC4O)CC3)c(Cl)cc2cn1 (single isomer, unassigned) [Ex-4.61, N-(7-chloro-6-(1-(4-hydroxy-3-methyltetrahydrofuran-3-yl)piperidin-4-yl)isoquinolin-3-yl)-2-(1-isobutyl-1H-pyrazol-5-yl)cyclopropane-1-carboxamide] |

More lines, now with the values behind:

| Compound | IC50 [nM] |
| --- | --- |
| CC1(C)CC(C(=O)Nc2cc3cc(C4CCN(C5(C)COCC5F)CC4)c(Cl)cc3cn2)CCO1 (single isomer, unassigned) [Ex-6.39, N-(7-chloro-6-(1-(4-fluoro-3-methyltetrahydrofuran-3-yl)piperidin-4-yl)isoquinolin-3-yl)-2,2-dimethyltetrahydro-2H-pyran-4-carboxamide] | 89.1 |
| CCC1C(C(=O)Nc2cc3cc(C4CCN(C5(C)COCC5F)CC4)c(C)cc3cn2)C1c1cnn(C)c1 (single isomer, unassigned) [Ex-15.15, 2-ethyl-N-(6-(1-(4-fluoro-3-methyltetrahydrofuran-3-yl)piperidin-4-yl)-7-methylisoquinolin-3-yl)-3-(1-methyl-1H-pyrazol-4-yl)cyclopropane-1-carboxamide] | 58.9 |
| CC1(N2CCC(c3cc4cc(NC(=O)C5CC56CCC(F)(F)CC6)ncc4cc3Cl)CC2)COCC1O (stereo not shown) [Ex-2.17] | 4.27 |
| O=C(Nc1cc2cc(C3CCN(C4COC4)CC3)c(Cl)cc2cn1)C1(F)CC1 [Ex-7.8, N-(7-chloro-6-(1-(oxetan-3-yl)piperidin-4-yl)isoquinolin-3-yl)-1-fluorocyclopropane-1-carboxamide] | 9.12 |
| O=C(Nc1cc2cc(C3CCN(C4COCC4O)CC3)c(Cl)cc2cn1)C1CC12CCOCC2 (single isomer, unassigned) [Ex-4.3, N-(7-chloro-6-(1-(4-hydroxytetrahydrofuran-3-yl)piperidin-4-yl)isoquinolin-3-yl)-6-oxaspiro[2.5]octane-1-carboxamide] | 18.2 |
| N#CC1(c2ccc3cnc(NC(=O)C4CC(OC(F)F)C4)cc3c2)CC12CC2 (single isomer, unassigned) [Ex-2.7] | 10.5 |
| CC(C)(O)C1CC1C(=O)Nc1cc2cc(C3CCN(C4(C)COCC4F)CC3)c(Cl)cc2cn1 (single isomer, unassigned) [Ex-6.27, N-(7-chloro-6-(1-(4-fluoro-3-methyltetrahydrofuran-3-yl)piperidin-4-yl)isoquinolin-3-yl)-2-(2-hydroxypropan-2-yl)cyclopropane-1-carboxamide] | 112 |
| CC1(N2CCC(c3cc4cc(NC(=O)C5CC5c5ccccn5)ncc4cc3Cl)CC2)CCOC1 (single isomer, unassigned) [Ex-6.34, N-(7-chloro-6-(1-(3-methyltetrahydrofuran-3-yl)piperidin-4-yl)isoquinolin-3-yl)-2-(pyridin-2-yl)cyclopropane-1-carboxamide] | 0.977 |
| CC(C)(O)C1CC1C(=O)Nc1cc2cc(C3CCN(C4(C)COCC4F)CC3)c(Cl)cc2cn1 (single isomer, unassigned) [Ex-6.26, N-(7-chloro-6-(1-(4-fluoro-3-methyltetrahydrofuran-3-yl)piperidin-4-yl)isoquinolin-3-yl)-2-(2-hydroxypropan-2-yl)cyclopropane-1-carboxamide] | 0.234 |
| Cc1cc2cnc(NC(=O)C3CC3C(F)F)cc2cc1C1CCN(C2(C)COCC2O)CC1 (stereo not shown) [Ex-2.55] | 3.98 |
| CC1(N2CCC(c3cc4cc(NC(=O)C5CC5C5CCOCC5)ncc4cc3Cl)CC2)COCC1O (single isomer, unassigned) [Ex-4.67, N-(7-chloro-6-(1-(4-hydroxy-3-methyltetrahydrofuran-3-yl)piperidin-4-yl)isoquinolin-3-yl)-2-(tetrahydro-2H-pyran-4-yl)cyclopropane-1-carboxamide] | 0.0813 |
| CC1COCC1(C)N1CCC(c2cc3cc(NC(=O)C4CC45CCOCC5)ncc3cc2Cl)CC1 (single isomer, unassigned) [Ex-6.10, N-(7-chloro-6-(1-(3,4-dimethyltetrahydrofuran-3-yl)piperidin-4-yl)isoquinolin-3-yl)-6-oxaspiro[2.5]octane-1-carboxamide] | 110 |
| CC1(N2CCC(c3cc4cc(NC(=O)C5CC56CCOC6)ncc4cc3Cl)CC2)COCC1F (single isomer, unassigned) [Ex-6.1, (R or S)-N-(7-chloro-6-(1-((3R,4R or 3S,4S)-4-fluoro-3-methyltetrahydrofuran-3-yl)piperidin-4-yl)isoquinolin-3-yl)-5-oxaspiro [2.4] heptane-1-carboxamide] | 42.7 |
| CC1(C)CCC(C(=O)Nc2cc3cc(C4CCC(N5CCC(F)C5)CC4)c(Cl)cc3cn2)CO1 (single isomer, unassigned) [Ex-5.18, N-(7-chloro-6-(4-(3-fluoropyrrolidin-1-yl)cyclohexyl)isoquinolin-3-yl)-6,6-dimethyltetrahydro-2H-pyran-3-carboxamide] | 1020 |
| CC1(N2CCC(c3cc4cc(NC(=O)C5CC56CCOCC6)ncc4cc3Cl)CC2)COCC1F (single isomer, unassigned) [Ex-6.24, N-(7-chloro-6-(1-(4-fluoro-3-methyltetrahydrofuran-3-yl)piperidin-4-yl)isoquinolin-3-yl)-6-oxaspiro[2.5]octane-1-carboxamide] | 0.0813 |
| N#CC1(c2ccc3cnc(NC(=O)Cc4cnn(C(F)F)c4)cc3c2)CC12CC2 (single isomer, unassigned) [Ex-1.43, (R or S)-N-(6-(1-cyanospiro[2.2]pentan-1-yl)isoquinolin-3-yl)-2-(1-(difluoromethyl)-1H-pyrazol-4-yl)acetamide] | 7.08 |
